According to ChEMBL document CHEMBL4431343, “Synthesis and activity of novel homodimers of Morita-Baylis-Hillman adducts against Leishmania donovani: A twin drug approach” (Bioorg Med Chem Lett, 2016):

Experiments:
Leishmania donovani [1] = test: Antileishmanial activity against promastigote forms of Leishmania donovani MHOM/ET/1967/HU3 assessed as reduction in cell viability after 72 hrs by MTT assay; format: functional, organism-based; conditions: MHOM/ET/1967/HU3, 72 h
[2] = Hemolytic activity in human red blood cells; format: cell-based, Erythrocyte; conditions: red blood cells (erythrocytes)
[3] = Selectivity index, ratio of HC50 for human red blood cells to IC50 for promastigote forms of Leishmania donovani MHOM/ET/1967/HU3; format: toxicity; conditions: read-out: Selectivity Index
Leishmania donovani [4] = test: Potency index, ratio of Amphotericin B IC50 to compound IC50 for promastigote forms of Leishmania donovani MHOM/ET/1967/HU3; format: functional

Compound | IC50 (Leishmania donovani [1]) | HC50 [2] | selectivity ratio [3] | Ratio IC50 (Leishmania donovani [4])
C=C(C(=O)OC)C(O)c1ccc(F)cc1 (centres undefined) | 610 µM |  |  | 
C=C(C(=O)OCCOC(=O)C(=C)C(O)c1ccc([N+](=O)[O-])cc1)C(O)c1ccc([N+](=O)[O-])cc1 (centres undefined) | 44.6 µM |  |  | 
C[C@@H]1[C@H](O)[C@@H](C)/C=C/C=C/C=C/C=C/C=C/C=C/C=C/[C@H](O[C@@H]2O[C@H](C)[C@@H](O)[C@H](N)[C@@H]2O)C[C@@H]2O[C@](O)(C[C@@H](O)C[C@@H](O)[C@H](O)CC[C@@H](O)C[C@@H](O)CC(=O)O[C@H]1C)C[C@H](O)[C@H]2C(=O)O [AMPHOTERICIN B] | 0.62 µM | 11.6 µM | 18.7 | 
C=C(C(=O)OCCOC(=O)C(=C)C(O)c1ccc(F)cc1)C(O)c1ccc(F)cc1 (centres undefined) | 42.4 µM |  |  | 
C=C(C(=O)OCCOC(=O)C(=C)C(O)c1ccc(Cl)cc1)C(O)c1ccc(Cl)cc1 (centres undefined) | 10.5 µM | > 200 µM | > 19.1 | 
C=C(C(=O)OC)C(O)c1ccc(Cl)cc1 (centres undefined) | 202 µM |  |  | 
C=C(C(=O)OCCOC(=O)C(=C)C(O)c1ccc(Br)cc1)C(O)c1ccc(Br)cc1 (centres undefined) | 0.5 µM | > 200 µM | > 400 | 1.24
C=C(C(=O)OCCOC(=O)C(=C)C(O)c1ccc2ccccc2c1)C(O)c1ccc2ccccc2c1 (centres undefined) | 39 µM |  |  | 
C=C(C(=O)OC)C(O)c1ccccc1[N+](=O)[O-] (centres undefined) | 690 µM |  |  | 
C=C(C(=O)OCCOC(=O)C(=C)C(O)c1cccc([N+](=O)[O-])c1)C(O)c1cccc([N+](=O)[O-])c1 (centres undefined) | 43 µM |  |  | 
C=C(C(=O)OCCOC(=O)C(=C)C(O)c1ccccc1[N+](=O)[O-])C(O)c1ccccc1[N+](=O)[O-] (centres undefined) | 24.8 µM |  |  | 
C=C(C(=O)OC)C(O)c1ccccc1 (centres undefined) | 953 µM |  |  | 
C=C(C(=O)OCCOC(=O)C(=C)C(O)c1ccccc1)C(O)c1ccccc1 (centres undefined) | 126 µM |  |  | 
C=C(C(=O)OC)C(O)c1cccc([N+](=O)[O-])c1 (centres undefined) | 161 µM |  |  | 
C=C(C(=O)OC)C(O)c1ccc(Br)cc1 (centres undefined) | 197 µM |  |  | 
C=C(C(=O)OC)C(O)c1ccc2ccccc2c1 (centres undefined) | 185 µM |  |  | 
C=C(C(=O)OC)C(O)c1ccc([N+](=O)[O-])cc1 (centres undefined) | 165 µM |  |  | 
